Legend:
IRE1a [1] = biological target: T1, IRE1a (Homo sapiens, UniProt O75460); assay: In vitro FRET assay (IRE1a cleavage of XBP1 RNA probe); format: biochemical; settings: 2 nM SignalChem IRE1a, tested as Formic Acid Salt (37: HCl Salt)
T1 construct: purchased SignalChem
Procedure: In vitro FRET assay was performed to evaluate the ability of select compounds to inhibit IRE1, the results of which are summarized in Table 3. To perform the in vitro FRET assay, 1× complete assay buffer (CAB: […], 50 mM sodium citrate pH 7.15, 1 mM magnesium acetate, 0.02% tween 20) was used to SignalChem IRE1a protein to a final concentration of 2 nM. Selected compounds were serially diluted with DMSO in a non-binding black 384-well plate for a total of 15 ul in each well. 2 ul of the serially diluted compound or DMSO control were then added to new wells containing 98 ul of 1× CAB, for a total volume of 100 ul, 10 ul of which were then transferred to wells of a new plate. 5 ul of the diluted IRE1a was then added to each well. 5 ul of a […] XBP1 RNA probe was then added to each well. Fluorescence was then read over 30 minutes in kinetic mode (485/515 nm).
Two RNA probes were used, XBP1 wildtype (SEQ ID NO: 2) which is able to be spliced by active IRE1a or XBP1 mutant (SEQ ID NO: 3) which is unable to be spliced. Each probe contained a 5′ 6-FAM modification and a 3′ IOWA black FQ modification. […]

IRE1a [2] = assay: IRE1a Endoribonuclease Nanoluciferase Assay (XBP1 luciferase reporter in 293T cells); format: cell-based, human; settings: Homo sapiens, HEK-293T, ER stressor, tested as Formic Acid Salt (37: HCl Salt)
Procedure: Compounds disclosed herein assessed for disruption of IRE1 signaling using a IRE1a Endoribonuclease Nanoluciferase Assay. Briefly, 25×10^5 293T cells were seeded in a 10 cm^2 tissue culture plate. About 24 hours later, the cells were transfected with Effectene. In a 15 mL tube, the following was added: 2 ug XBP1 luciferase reporter plasmid (PGK-Luc2-P2A-XBP1u-Nanoluciferase-Pest); 300 ul EC buffer; and 16 ul Enhancer, followed by incubation at room temp for 5 minutes. Next, 60 ul Effectene (Qiagen 301427) was added, followed by incubation at room temperature for 10 minutes. 2.6 mL cDMEM media was added. Old media was aspirated from the cells, followed by addition of 7 mL fresh media. Full transfection mixture was added dropwise to cells. Cells were incubated for 6 hours, followed by trypsinization, centrifugation and resuspension in 11 mL fresh cDMEM media. 100 uL of cells were plated per a well in a 96 well plate. A day later, ER stressors of choice +/−inhibitors were added. To harvest, media was aspirated from cells completely, then 50 uL 1× passive lysis buffer (Promega: E1941) was added per well and put on shaker (300 rpm) for 30 minutes at room temperature. Cells were centrifuged, and 15 uL sample per well was added to a new, opaque white 384 well plate (Corning 3570). 15 uL OneGlo (nanoluciferase kit, Promega N1630) was added. Plates were spun down, placed on shaker (300 rpm) for 10 minutes. Plates were read on luminometer, 1000 ms integration time per well. 15 uL Stop an Glo (nanoluciferase kit) was added. Plates were spun down, placed on shaker (300 rpm) for 10 minutes. Plates were read on luminometer, 1000 ms second integration time per well. Recordings are provided below in Table 4.

T1 sequence (O75460 19-977): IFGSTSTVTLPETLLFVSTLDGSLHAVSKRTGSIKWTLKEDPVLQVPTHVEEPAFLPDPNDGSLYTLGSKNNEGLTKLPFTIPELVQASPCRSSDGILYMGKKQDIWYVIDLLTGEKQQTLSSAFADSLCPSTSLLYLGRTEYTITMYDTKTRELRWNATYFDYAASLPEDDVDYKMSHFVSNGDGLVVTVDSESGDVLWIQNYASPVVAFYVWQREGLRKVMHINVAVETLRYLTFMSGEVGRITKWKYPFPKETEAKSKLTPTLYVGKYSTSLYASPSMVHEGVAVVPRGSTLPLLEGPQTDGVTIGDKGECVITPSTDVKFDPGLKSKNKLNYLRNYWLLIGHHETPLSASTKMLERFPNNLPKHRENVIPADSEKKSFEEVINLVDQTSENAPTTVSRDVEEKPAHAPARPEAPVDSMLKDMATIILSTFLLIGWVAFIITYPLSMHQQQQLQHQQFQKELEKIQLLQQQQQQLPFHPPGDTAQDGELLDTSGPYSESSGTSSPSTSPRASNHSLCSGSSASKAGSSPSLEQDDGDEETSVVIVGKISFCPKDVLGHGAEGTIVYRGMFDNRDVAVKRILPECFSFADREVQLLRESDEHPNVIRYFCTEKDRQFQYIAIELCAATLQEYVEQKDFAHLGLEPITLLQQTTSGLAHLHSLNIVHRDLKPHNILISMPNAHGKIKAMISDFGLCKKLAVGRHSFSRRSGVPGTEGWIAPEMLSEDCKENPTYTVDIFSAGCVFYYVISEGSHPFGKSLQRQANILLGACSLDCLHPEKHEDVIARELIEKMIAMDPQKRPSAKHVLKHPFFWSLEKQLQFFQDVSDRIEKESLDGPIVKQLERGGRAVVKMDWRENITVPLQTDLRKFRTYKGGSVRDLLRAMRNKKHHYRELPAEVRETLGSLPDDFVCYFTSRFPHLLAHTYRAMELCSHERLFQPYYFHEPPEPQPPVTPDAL

Compound | IC50 (IRE1a [1]) [nM] | EC50 (IRE1a [2]) [nM]
CCc1cc(-c2cc(F)c(NS(=O)(=O)c3ccccc3Cl)c(F)c2)cc2cnc(N[C@H]3CC[C@H](N)CC3)nc12 [Compound 63, N-(4-(2-(((1r,4r)-4-aminocyclohexyl)amino)-8-ethylquinazolin-6-yl)-2,6-difluorophenyl)-2-chlorobenzene-sulfonamide] | ≤ 5 | –
COc1nc(NS(=O)(=O)c2ccccc2Cl)ccc1-c1cc(C)c2nc(N[C@H]3CC[C@@H](N(C)C)CC3)ncc2c1 [Compound 139, 2-chloro-N-(5-(2-(((1s,4s)-4-(dimethylamino)cyclohexyl)amino)-8-methylquinazolin-6-yl)-6-methoxypyridin-2-yl)benzenesulfonamide] | 5 to 50 | –
N[C@H]1CC[C@H](Nc2ncc3cc(-c4ccc(NS(=O)(=O)c5ccccc5Cl)nn4)ccc3n2)CC1 [Compound 49, N-(6-(2-(((1r,4r)-4-aminocyclohexyl)amino)quinazolin-6-yl)pyridazin-3-yl)-2-chlorobenzene-sulfonamide] | ≤ 5 | –
Cc1cc(N(C)S(=O)(=O)c2ccccc2Cl)ccc1-c1cc(O)c2nc(N[C@H]3CC[C@H](N)CC3)ncc2c1 [Compound 30, N-(4-(2-(((1r,4r)-4-aminocyclohexyl)amino)-8-hydroxyquinazolin-6-yl)-3-methylphenyl)-2-chloro-N-methylbenzene-sulfonamide] | 50 to 100 | –
CC(C)c1cc(-c2cc(NS(=O)(=O)c3ccccc3Cl)nn2C)cc2cnc(N[C@H]3CC[C@H](N)CC3)nc12 [Compound 40, N-(5-(2-(((1r,4r) 4-aminocyclohexyl)amino)-8-isopropylquiazolin-6-yl)-1-methyl-1H-pyrazol-3-yl)-2-chlorobenzene-sulfonamide] | ≤ 5 | –
CCc1cc(-c2ccc(NS(=O)(=O)c3ccccc3Cl)nc2OC)cc2cnc(N[C@H]3CC[C@@](C)(N(C)C)CC3)nc12 [Compound 143, 2-chloro-N-(5-(2-(((1s,4s)-4-(dimethylamino)-4-methylcyclohexyl)amino)-8-ethylquinazolin-6-yl)-6-methoxypyridin-2-yl)benzenesulfonamide] | 5 to 50 | –
CCc1cc(-n2cc(NS(=O)(=O)c3ccccc3Cl)cn2)cc2cnc(N[C@H]3CC[C@H](N)CC3)nc12 [Compound 43, N-(1-(2-(((1r,4r)-4-aminocyclohexyl)amino)-8-ethylquinazolin-6-yl)-1H-pyrazol-4-yl)-2-chlorobenzene-sulfonamide] | ≤ 5 | –
CCc1cc(-c2ccc(N(C)S(=O)(=O)c3ccccc3Cl)cc2C)cc2cnc(N[C@H]3CC[C@H](N)CC3)nc12 [Compound 31, N-(4-(2-(((1r,4r)-4-aminocyclohexyl)amino)-8-ethylquinazolin-6-yl)-3-methylphenyl)-2-chloro-N-methylbenzene-sulfonamide] | 100 to 10000 | –
CCc1cc(-c2ccc(NS(=O)(=O)c3ccccc3Cl)c(F)c2)cc2cnc(N[C@H]3CCCNC3)nc12 [Compound 73, (S)-2-chloro-N-(4-(8-ethyl-2-(piperidin-3-ylamino)quinazolin-6-yl)-2-fluoropbenyl) benzenesulfon-amide] | – | ≤ 5
N[C@H]1CC[C@H](Nc2ncc3cc(-c4ccc(NS(=O)(=O)c5ccccc5Cl)c(F)c4)ccc3n2)CC1 [Compound 50, N-(4-(2-(((1r,4r)-4-aminocyclohexyl)amino)quinazolin-6-yl)-2-fluorophenyl)-2-chlorobenzene-sulfonamide] | ≤ 5 | –
CCc1cc(-c2cc(F)c(NS(=O)(=O)c3ccccc3Cl)cc2OC)cc2cnc(N[C@H]3CC[C@H](N)CC3)nc12 [Compound 42, N-(4-(2-(((1r,4r)-4-aminocyclohexyl)amino)-8-ethylquinazolin-6-yl)-2-fluoro-5-methoxyphenyl)-2-chlorobenzene-sulfonamide] | ≤ 5 | –
CCc1cc(-c2ccc(NS(=O)(=O)c3ccccc3Cl)c(F)c2)cc2cnc(N[C@@H]3CC[C@H](N)[C@H](C)C3)nc12 [Compound 70, N-(4-(2-(((1R,3R,4S)-4-amino-3-methylcyclohexyl)amino)-8-ethylquinazolin-6-yl)-2-fluorophenyl)-2-chlorobenzene-sulfonamide] | – | ≤ 5
CCc1cc(-c2cnc(NS(=O)(=O)c3ccccc3Cl)nc2)cc2cnc(N[C@H]3CC[C@H](N)CC3)nc12 [Compound 39, N-(5-(2-(((1r,4r)-4-aminocyclohexyl)amino)-8-ethylquinazolin-6-yl)pyrimidin-2-yl)-2-chlorobenzene-sulfonamide] | ≤ 5 | –
COc1cc(-c2cc(NS(=O)(=O)c3ccccc3Cl)nn2C)cc2cnc(N[C@H]3CC[C@H](N)CC3)nc12 [Compound 45, N-(5-(2-(((1r,4r)-4-aminocyclohexyl)amino)-8-methoxyquinazolin-6-yl)-1-methyl-1H-pyrazol-3-yl)-2-chlorobenzene-sulfonamide] | 50 to 100 | –
Cc1nc(NS(=O)(=O)c2ccccc2Cl)c(F)cc1-c1cc(F)c2nc(N[C@H]3CC[C@H](N(C)C)CC3)ncc2c1 [Compound 156, 2-chloro-N-(5-(2-(((1r,4r)-4-(dimethylamino)cyclohexyl)amino)-8-fluoroquinazolin-6-yl)-3-fluoro-6-methylpyridin-2-yl)benzenesulfonamide] | 100 to 10000 | –
CCc1cc(NS(=O)(=O)c2ccccc2Cl)nnc1-c1cc(CC)c2nc(N[C@H]3CC[C@H](N)CC3)ncc2c1 [Compound 96, N-(6-(2-(((1r,4r)-4-aminocyclohexyl)amino)-8-ethylquinazolin-6-yl)-5-ethylpyridazin-3-yl)-2-chlorobenzenesulfonamide] | ≤ 5 | –
CCc1cc(-c2cnc(NS(=O)(=O)c3ccccc3Cl)s2)cc2cnc(N[C@H]3CC[C@H](N)CC3)nc12 [Compound 41] | ≤ 5 | –
CCc1cc(-c2cc(F)c(NS(=O)(=O)c3ccccc3Cl)nc2OC)cc2cnc(N[C@H]3CC[C@@](C)(N(C)C)CC3)nc12 [Compound 144, 2-chloro-N-(5-(2-(((1s,4s)-4-(dimethylamino)-4-methylcyclohexyl)amino)-8-ethylquinazolin-6-yl)-3-fluoro-6-methoxypyridin-2-yl)benzenesulfonamide] | 50 to 100 | –
COc1nc(NS(=O)(=O)c2ccccc2Cl)c(F)cc1-c1cc(C)c2nc(N[C@H]3CC[C@@H](N(C)C)CC3)ncc2c1 [Compound 147, 2-chloro-N-(5-(2-(((1s,4s)-4-(dimethylamino)cyclohexyl)amino)-8-methylquinazolin-6-yl)-3-fluoro-6-methoxypyridin-2-yl)benzenesulfonamide] | 5 to 50 | –
N[C@H]1CC[C@@H](Nc2ncc3cc(-c4ccc(NS(=O)(=O)c5ccccc5Cl)c(F)c4)ccc3n2)C1 [Compound 80, N-(4-(2-(((1R,3S)-3-aminocyclopentyl)amino)quinazolin-6-yl)-2-fluorophenyl)-2-chlorobenzene-sulfonamide] | – | 100 to 10000
CCc1cc(-c2sc(NS(=O)(=O)c3ccccc3Cl)nc2C)cc2cnc(N[C@H]3CC[C@H](N)CC3)nc12 [Compound 38] | ≤ 5 | –
CCc1cc(-c2ccc(NS(=O)(=O)c3ccccc3Cl)nc2C)cc2cnc(N[C@H]3CC[C@H](N(C)CC(F)(F)F)CC3)nc12 [Compound 126, 2-chloro-N-(5-(8-ethyl-2-(((1r,4r)-4-(methyl(2,2,2-trifluoroethyl)amino)cyclohexyl)amino)quinazolin-6-yl)-6-methylpyridin-2-yl)benzenesulfonamide] | 50 to 100 | –
CCc1cc(-c2cc(F)c(NS(=O)(=O)c3ccccc3Cl)nc2OC)cc2cnc(N[C@H]3CC[C@@H](N(C)C)CC3)nc12 [Compound 142, 2-chloro-N-(5-(2-(((1s,4s)-4-(dimethylamino)cyclohexyl)amino)-8-ethylquinazolin-6-yl)-3-fluoro-6-methoxypyridin-2-yl)benzenesulfonamide] | 5 to 50 | –
COc1cc(-c2ccc(NS(=O)(=O)c3ccccc3Cl)cc2C)cc2cnc(N[C@H]3CC[C@H](N)CC3)nc12 [Compound 36, N-(4-(2-(((1r,4r)-4-aminocyclohexyl)amino)-8-methoxyquinazolin-6-yl)-3-methylphenyl)-2-chlorobenzene-sulfonamide] | ≤ 5 | –
